Here are results for 27 molecules from US7550469B2, “Heterocyclic amide derivatives and their use as dopamine D3 receptor ligands” (Aventis Pharmaceuticals Inc., priority 2001, dated 2009).

For this experiment, the target named is T1, cloned human dopamine D3 receptors (Homo sapiens, UniProt P35462).
T1 construct: expressed in transfected cells; membrane homogenate
The experiment in a line: [N-Methyl-3H]Spiroperidol binding to cloned human dopamine D3 receptors (Protocol 1). The source says:
[N-Methyl-^3H]Spiroperidol Binding to Cloned Human Dopamine D3 Receptors
This assay measures the in vitro activity of compounds on cloned human dopamine (D3) receptors and predicts the direct dopamine-blocking properties of putative neuropsychiatric agents at human dopamine D3 receptors.
The D3 gene was isolated from a human striatal cDNA library (Stratagene). The gene was sequenced and sub-cloned into the expression vector RC/RSV (Invitrogen). CHO (Chinese Hamster Ovary) cells were stably transfected with 10 μg of the D3/RSV plasmid using the DOTAP method from Boehringer Mannheim and 72 clones that were G418 resistant were isolated. Using mRNA and binding displacement data a single high expressing clone was identified. This clone was then grown in large batches for the purpose of developing a 96 well format assay.
• 1. One plate (10 cm) with approximately 2-3 million D3 cells per plate is incubated with 1 ml of Trypsin-EDTA at room temperature for ˜2 min or until cells have lifted off plates. Four ml of Ham's F12+10% Fetal Bovine Serum+1% Penicillin/Streptomycin+G418 (400 μg/ml) medium are added to resuspend cells and 1 ml of this is added to each large plate (15 cm) containing 19 ml of the-same medium as mentioned above. • 2. The 5 large plates are incubated at 37° C.+5% CO2 for ˜3 days or until the cells are confluent. • 3. After these plates are confluent, they are split into 10 large plates. Medium is aspirated off, 2 ml of Trypsin-EDTA are added to each plate and plates are incubated at RT for 2 min or until cells have lifted off the plate. Eight ml of the F12 medium (same medium as #1 above) are added to each plate (10 ml total) to resuspend the cells and 5 ml are transferred to the 2 new plates containing 15 ml of the F12 media. • 4. The 10 large plates are incubated at 37° C.+5% CO2 for ˜2 days or until the cells are confluent. • 5. The 10 large plates are split into 60 large plates (using Trypsin-EDTA as #3 except 4 ml of F12 medium are added to resuspend cells and 1 ml is aliquoted to 6 new plates containing 19 ml of F12 medium each). • 6. Plates are incubated at […]+5% CO2 for ˜3 days or until cell are confluent. • 7. The 60 large plates are then split into 60 roller bottles (100-150 million cells/bottle). Medium is aspirated off, 2 ml of Trypsin-EDTA are added to each plate and incubated at RT for ˜2 minutes or until cells have lifted off plates. Eight ml of F12 medium are added to each plate to resuspend cells and the entire 10 ml are added to 1 roller bottle containing 90 ml of the F12 medium. • 8. The 60 roller bottles are immediately placed on their sides and transferred to the roller bottle incubator. They are incubated at 37° C.+5% CO2 for ˜3-5 days. Cells are spun at 30-40% motor speed in the Forma incubator. • 9. Medium is poured off and cells are washed 2× in PBS. • 10. Cells are then scraped off in 20 ml of PBS and the bottles are rinsed again with 5 ml of PBS to remove any remaining cells. Cells are stored on ice before membrane preparation. • 11. The yield for 60 D3 roller bottles has varied from ˜260-500 mg. • Note: All tissue culture reagents are from Gibco-BRL. C. Membrane Preparation
The cells are harvested into 250 ml centrifuge tubes with 100 volumes of cold phosphate buffered saline (PBS) and spun down (1200×G for 10 min at 4° C.). The medium is removed and 100 ml PBS are added to each centrifuge tube, cells are resuspend and spun down again. The PBS is removed and the final pellet is homogenized in an appropriate volume of 10% DMSO with a polytron on ice at a medium setting.
1. 0.5M Tris Buffer, pH 7.7 • a) 44.4 g Tris HCl 26.5 g Tris Base q.s. to 1 Liter (0.5 M Tris buffer, pH 7.7 at 37° C.) • b) make a 1:10 dilution in distilled H2O (0.05 M. Tris buffer, pH 7.7) 2. Tris Buffer Containing Physiological Salts • a) Stock buffer • NaCl 7.014 g • KCl 0.372 g • CaCl2 0.222 g • MgCl2 0.204 g • q.s. To 100 ml with 0.5 M. Tris Buffer • b) Dilute 1:10 in distilled H2O […]

[1] abbreviates: the 23rd table, read-out: D3 Ki.
Where [2] appears, read: the 21st table, read-out: D3 Ki.
Setting [3] is: the 15th table, read-out: D3 Ki.
Where [4] appears, read: the 18th table, read-out: D3 Ki.
Where [5] appears, read: the 13th table, unit inferred, read-out: D3Ki.
[6] abbreviates: the 16th table, read-out: D3 Ki.

Like-named read-outs stand apart in the source and are kept apart here.

T1 sequence (P35462 whole entry): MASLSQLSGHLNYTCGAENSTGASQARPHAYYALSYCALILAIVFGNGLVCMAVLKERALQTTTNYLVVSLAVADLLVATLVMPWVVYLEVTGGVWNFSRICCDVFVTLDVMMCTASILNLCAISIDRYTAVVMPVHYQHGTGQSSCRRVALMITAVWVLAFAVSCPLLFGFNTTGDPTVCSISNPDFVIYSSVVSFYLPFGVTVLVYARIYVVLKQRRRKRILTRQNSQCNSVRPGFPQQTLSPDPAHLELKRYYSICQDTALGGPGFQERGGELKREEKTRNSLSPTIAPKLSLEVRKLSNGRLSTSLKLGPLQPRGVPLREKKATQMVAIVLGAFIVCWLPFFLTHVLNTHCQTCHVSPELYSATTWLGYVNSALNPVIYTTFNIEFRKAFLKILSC

As to `CCC1CCC(NCC2CC2CN2CCN(c3cc(C)ccc3C)CC2)CC1` (stereo not shown) [compound 832265], the Ki under setting [1] amounted to 72.8 nM.

As for `C[C@@H]1CN(c2csc3cc(F)ccc23)C[C@H](C)N1CCCCNC(=O)c1cccc(C(F)(F)F)c1` [compound 827052], the Ki under setting [2] worked out at 153 nM.

Turning to `CC(C)C(=O)NCCCCN1CCN(c2csc3cc(C(F)(F)F)ccc23)CC1` [compound 811700], the Ki (read-out: D3K1) came to 42.1 nM.

Consider `O=C(NC/C=C/CN1CCN(c2csc3cc(C(F)(F)F)ccc23)CC1)c1cccc(F)c1` [compound 827720], for which the Ki (read-out: D3K1) worked out at 86 nM.

`O=C(NCc1ccoc1CN1CCN(c2csc3cc(F)ccc23)CC1)c1cc2ccccc2s1` [compound 825844]: the Ki (the 20th table, read-out: D3 Ki) came out at 601 nM.

Consider `O=C(NCCCCN1C2CCC1CC(c1noc3ccccc13)C2)c1ccc(F)cc1` (stereo not shown) [compound 816520], for which, under setting [3], the Ki is 292 nM.

Regarding `O=C(NCc1sccc1CN1CCN(c2csc3cc(F)ccc23)CC1)c1csnn1` [compound 826317], the Ki under setting [4] was 48 nM.

Consider `O=C(NCCCCN1CCN(c2noc3ccsc23)CC1)c1cc(Cl)cc(Cl)c1` [compound 829678], for which, where the note is “the 22nd table, read-out: D3 Ki”, the Ki stood at 275 nM.

Consider `O=C(NCc1sccc1CN1CCN(c2csc3cc(F)ccc23)CC1)c1cc(-c2ccco2)nc2ccccc12` [compound 826319], for which, under setting [4], the Ki is 273 nM.

As to `O=C(NCCCCN1C2CCC1CC(c1noc3ccccc13)C2)C1CCCCC1` (stereo not shown) [compound 816524], the Ki under setting [3] amounted to 357 nM.

In the case of `O=C(NCC(CO)CCN1CCN(c2csc3cc(C(F)(F)F)ccc23)CC1)c1ccco1` (stereo not shown) [818924ES], the Ki (Table 2, read-out: D3K1) came to 318 nM.

As to `O=C(NCCCCN1C2CCC1CC(c1noc3cc(F)ccc13)C2)c1ccc(Br)cc1` (stereo not shown) [compound 816335], under setting [3], the Ki was found to be 268 nM.

With `O=C(CCC1CCCC1)NC/C=C\CN1CCN(c2csc3cc(C(F)(F)F)ccc23)CC1` [compound 826345], the Ki (read-out: D3K1) came to 77 nM.

For the molecule `O=C(NC/C=C/CN1CCN(c2csc3cc(C(F)(F)F)ccc23)CC1)c1cccc(C(F)(F)F)c1` [compound 827724], the Ki (read-out: D3K1) came out at 120 nM.

As to `Cn1cccc1C(=O)NCCCCN1CCCN(c2csc3cc(C(F)(F)F)ccc23)CC1` [S980655], under setting [5], the Ki came out at 40 nM.

For the molecule `O=C(NCCCCN1CCN(c2c(-c3ccccc3)sc3cc(F)ccc23)CC1)c1ccc(-c2ccccc2)cc1` [compound 815872], the Ki (Table 2, read-out: D3K1) was 567 nM.

Take `O=C(NC/C=C\CN1CCN(c2csc3cc(C(F)(F)F)ccc23)CC1)c1ccc(OC(F)(F)F)cc1` [compound 826348]: where the note is “read-out: D3K1”, the Ki amounted to 61 nM.

Take `O=C(NCCCN1CCCN(c2csc3cc(F)ccc23)CC1)c1cc2ccccc2s1` [compound 827143]: the Ki came out at 123 nM (Table 2, read-out: D3K1) and 123 nM under setting [6].

With `C[C@@H]1CN(c2csc3cc(F)ccc23)C[C@H](C)N1CCCCNC(=O)c1cnc2ccccc2n1` [compound 826945], the Ki under setting [2] worked out at 133 nM.

On to `Cc1nnsc1C(=O)NCCCCN1CCCN(c2csc3cc(C(F)(F)F)ccc23)CC1` [S980660], for which the Ki under setting [5] is 43.8 nM.

Regarding `CCNc1ccccc1C(=O)NCCCCN1CCCN(c2csc3cc(F)ccc23)CC1` [compound 817267], the Ki reads like this: (Table 2, read-out: D3K1) 3.03 nM; under setting [6], 3.03 nM.

Turning to `Cc1nc(Cl)c(Cl)n1CCCNCC1CC1CN1CCN(c2csc3cc(C(F)(F)F)ccc23)CC1` (racemic) [compound 832644], under setting [1], the Ki was 97.5 nM.

`O=C(NCC(CO)CCN1CCN(c2csc3cc(C(F)(F)F)ccc23)CC1)c1ccc2[nH]ccc2c1` (stereo not shown) [818931ES]: for the setting “Table 2, read-out: D3K1”, the Ki was 97.2 nM.

As to `O=C(NCCCCCN1CCC(c2noc3ccsc23)CC1)c1ccccc1` [compound 816212], the Ki under setting [5] is 570 nM.

Consider `Cc1oc(-c2ccccc2)cc1C(=O)NCCCCN1CCCN(c2csc3cc(F)ccc23)CC1` [S981839], for which the Ki under setting [5] turned out to be 1.4 nM.

On to `O=C(NCCCCN1CCCN(c2csc3cc(F)ccc23)CC1)c1ccc2cc[nH]c2c1` [S977825], for which, under setting [5], the Ki amounted to 0.882 nM.

As to `O=C(N[C@@H](CO)CCCN1CCN(c2csc3cc(C(F)(F)F)ccc23)CC1)c1ccc2[nH]ccc2c1` [compound 815676], the Ki came out at 224 nM (Table 2, read-out: D3K1); 224 nM (read-out: D3K1); 224 nM (the 14th table, read-out: D3 Ki).
